Experiments:
human mGluR5d = target: T1, human mGluR5d (Homo sapiens, UniProt P41594); experiment: FLIPR assay, mobilization of intracellular calcium in cells expressing human mGluR5d; format: cell-based; settings: antagonism of agonist response, read-out: FLIPR hmGluR5d
T1 construct: expressed in transfected cells; The cells are kept under hygromycin B and Zeocin selection; The separate IP3 assay names GHEK cells stably expressing human mGluR5d
From the text: Functional Assessment of mGluR5 Antagonism in Cell Lines Expressing mGluR5D
The properties of the compounds of the invention can be analyzed using standard assays for pharmacological activity. Examples of glutamate receptor assays are well known in the art as described in for example Aramori et al., Neuron 8:757 (1992), Tanabe et al. Neuron 8:169 (1992), Miller et al., J. Neuroscience 15: 6103 (1995), Balazs, et al., J. Neurochemistry 69:151 (1997). The methodology described in these publications is incorporated herein by reference. Conveniently, the compounds of the invention can be studied by means of an assay (FLIPR) that measures the mobilization of intracellular calcium, [Ca^2+]i in cells expressing mGluR5 or another assay (IP3) that measures inositol phosphate turnover.
Cells expressing human mGluR5d as described in WO97/05252 cultured in a mixture of high glucose DMEM with Glutamax (31966-021)(500 mL), 10% dialyzed fetal bovine serum (Hyclone #SH30079.03) (56 mL), 200 μg/mL Hygromycin B (Invitrogen 45-0430, 50 mg/mL) (2.2 mL), 200 μg/mL Zeocin (Invitrogen #R250-01; 100 mg/mL) (1.1 mL) are seeded at a density of 100,000 cells per well on collagen coated clear bottom 96-well plates with black sides and cells were allowed to adhere over night before experiments. All assays are done in a buffer containing 146 mM NaCl, 5 mM KCl, 1 mM MgCl2, 1 mM CaCl2, 20 mM HEPES, 1 mg/mL glucose and 1 mg/mL BSA Fraction IV (pH 7.4). Cell cultures in the 96-well plates are loaded for 60 minutes in the above mentioned buffer containing 6 μM of the acetoxymethyl ester form of the fluorescent calcium indicator fluo-3 (Molecular Probes, Eugene, Oreg.) in 0.025% pluronic acid (a proprietary, non-ionic surfactant polyol—CAS Number 9003-11-6). Following the loading period the fluo-3 buffer is removed and replaced with fresh assay buffer. FLIPR experiments are done using a laser setting of 0.700 W and a 0.4 second CCD camera shutter speed with excitation and emission wavelengths of 488 nm and 562 nm, respectively. Each experiment is initiated with 160 μl of buffer present in each well of the cell plate. A 40 μl addition from the antagonist plate was followed by a 50 μL addition from the agonist plate. A 30 minutes, in dark at 25° C., interval separates the antagonist and agonist additions. The fluorescence signal is sampled 50 times at 1-second intervals followed by 3 samples at 5-second intervals immediately after each of the two additions. Responses are measured as the difference between the peak heights of the response to agonist, less the background fluorescence within the sample period. IC50 determinations are made using a […] least squares fitting program.

[1] = Determination of brain to plasma ratio in rat; format: in vivo; settings: brain and plasma, female Sprague Dawley rats, read-out: Brain/Plasma Ratio of compound in Rat
Description: Brain to plasma ratios are estimated in female Sprague Dawley rats. The compound is dissolved in water or another appropriate vehicle. For determination of brain to plasma ratio the compound is administrated as a subcutaneous, or an intravenous bolus injection, or an intravenous infusion, or an oral administration. At a predetermined time point after the administration a blood sample is taken with cardiac puncture. The rat is terminated by cutting the heart open, and the brain is immediately retained. The blood samples are collected in heparinized tubes and centrifuged within 30 minutes, in order to separate the plasma from the blood cells. The plasma is transferred to 96-well plates and stored at −20° C. until analysis. The brains are divided in half, and each half is placed in a pre-tarred tube and stored at −20° C. until analysis. Prior to the analysis, the brain samples are thawed and 3 mL/g brain tissue of distilled water is added to the tubes. The brain samples are sonicated in an ice bath until the samples are homogenized. Both brain and plasma samples are precipitated with acetonitrile. After centrifugation, the supernatant is diluted with 0.2% formic acid. Analysis is performed on a short reversed-phase HPLC column with rapid gradient elution and MSMS detection using a triple quadrupole instrument with electrospray ionisation and Selected Reaction Monitoring (SRM) acquisition. Liquid-liquid extraction may be used as an alternative sample clean-up. The samples are extracted, by shaking, to an organic solvent after addition of a suitable buffer. An aliquot of the organic layer is transferred to a new vial and evaporated to dryness under a stream of nitrogen. After reconstitution of the residuals the samples are ready for injection onto the HPLC column.

T1 sequence (P41594 21-942 isoform P41594-3 limits assumed): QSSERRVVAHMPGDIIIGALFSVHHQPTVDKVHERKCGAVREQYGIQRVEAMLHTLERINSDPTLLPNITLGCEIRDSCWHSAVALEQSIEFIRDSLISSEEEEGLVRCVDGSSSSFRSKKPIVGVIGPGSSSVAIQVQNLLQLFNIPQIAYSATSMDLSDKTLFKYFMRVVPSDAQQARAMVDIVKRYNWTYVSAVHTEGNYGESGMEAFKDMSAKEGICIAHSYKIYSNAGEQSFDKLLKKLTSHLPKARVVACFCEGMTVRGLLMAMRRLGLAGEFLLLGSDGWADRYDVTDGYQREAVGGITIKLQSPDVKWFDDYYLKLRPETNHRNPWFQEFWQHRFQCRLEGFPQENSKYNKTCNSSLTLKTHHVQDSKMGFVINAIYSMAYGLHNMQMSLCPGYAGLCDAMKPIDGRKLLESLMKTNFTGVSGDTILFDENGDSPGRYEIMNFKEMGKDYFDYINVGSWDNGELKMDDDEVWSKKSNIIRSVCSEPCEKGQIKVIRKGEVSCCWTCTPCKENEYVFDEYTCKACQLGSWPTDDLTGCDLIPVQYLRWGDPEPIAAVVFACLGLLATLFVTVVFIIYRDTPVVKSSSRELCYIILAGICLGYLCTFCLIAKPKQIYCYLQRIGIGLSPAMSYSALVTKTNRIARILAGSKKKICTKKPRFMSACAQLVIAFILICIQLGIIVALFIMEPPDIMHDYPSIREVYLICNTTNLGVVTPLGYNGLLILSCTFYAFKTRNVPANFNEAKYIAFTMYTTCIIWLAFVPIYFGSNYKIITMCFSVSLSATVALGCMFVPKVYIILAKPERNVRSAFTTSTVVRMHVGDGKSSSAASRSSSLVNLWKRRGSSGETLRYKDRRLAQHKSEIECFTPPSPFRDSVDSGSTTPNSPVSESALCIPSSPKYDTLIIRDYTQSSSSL

IC50 (human mGluR5d)	Kp [1]	Structure (SMILES)
20 nM	0.16	CN(Cc1cc(-c2cccc(Cl)c2)on1)c1nnc(-c2cncnc2)n1C [Example 8.2, N-{[5-(3-Chlorophenyl)isoxazol-3-yl]methyl}-N,4-dimethyl-5-pyrimidin-5-yl-4H-1,2,4-triazol-3-amine]
75 nM	< 0.01	CCN(Cc1noc(-c2cccc(C)c2)n1)c1nnc(-c2ccn(C)c(=O)c2)n1C [Example 8.6, 4-[5-(Ethyl{[5-(3-methylphenyl)-1,2,4-oxadiazol-3-yl]methyl}amino)-4-methyl-4H-1,2,4-triazol-3-yl]-1-methylpyridin-2(1H)-one]
10 nM	0.03	CN(Cc1cc(-c2cccc(Cl)c2)on1)c1nnc(-c2ccnnc2)n1C [Example 8.1, N-{[5-(3-Chlorophenyl)isoxazol-3-yl]methyl}-N,4-dimethyl-5-pyridazin-4-yl-4H-1,2,4-triazol-3-amine]
52 nM	< 0.01	CCN(Cc1noc(-c2cccc(C)c2)n1)c1nnc(-c2cn[nH]c(=O)c2)n1C [Example 8.5, 5-[5-(Ethyl{[5-(3-methylphenyl)-1,2,4-oxadiazol-3-yl]methyl}amino)-4-methyl-4H-1,2,4-triazol-3-yl]pyridazin-3(2H)-one]
43 nM	< 0.01	CCN(Cc1noc(-c2cccc(Cl)c2)n1)c1nnc(-c2cn[nH]c(=O)c2)n1C [Example 8.4, 5-{5-[{[5-(3-Chlorophenyl)-1,2,4-oxadiazol-3-yl]methyl}(ethyl)amino]-4-methyl-4H-1,2,4-triazol-3-yl}pyridazin-3(2H)-one]
117 nM	< 0.01	Cc1cccc(-c2cc([C@H](C)N(C)c3nnc(-c4ccn(C)c(=O)c4)n3C)no2)c1 [Example 8.3, 1-Methyl-4-[4-methyl-5-(methyl-{(1S)-1-[5-(3-methylphenyl)-isoxazol-3-yl]ethyl}amino)-4H-1,2,4-triazol-3-yl]pyridin-2(1H)-one]

Continued, compound first:

Structure (SMILES)	IC50 (human mGluR5d)	Kp [1]
CCN(Cc1cc(-c2cccc(Cl)c2)on1)c1nnc(-c2cc[nH]c(=O)c2)n1C [Example 4.2, 4-{5-[{[5-(3-Chlorophenyl)-isoxazol-3-yl]methyl}(ethyl)amino]-4-methyl-4H-1,2,4-triazol-3-yl}pyridin-2(1H)-one]	31 nM	0.02
CC(c1cc(-c2cccc(Cl)c2)on1)N(C)c1nnc(-c2ccn(C)c(=O)c2)n1C (single isomer, unassigned; (-)) [(−) 5.1]	30 nM	< 0.01
CC(c1cc(-c2cccc(Cl)c2)on1)N(c1nnc(-c2cn[nH]c(=O)c2)n1C)C1CC1 (single isomer, unassigned; (-)) [(−) 5.2]	111 nM	< 0.01
CCN(Cc1cc(-c2cccc(Cl)c2)on1)c1nnc(-c2cn[nH]c(=O)c2)n1C [Example 4.3, 5-{5-[{[5-(3-Chlorophenyl)-isoxazol-3-yl]methyl}(ethyl)-amino]-4-methyl-4H-1,2,4-triazol-3-yl}pyridazin-3(2H)-one]	21 nM	0.015
Cn1c(-c2cn[nH]c(=O)c2)nnc1N(Cc1cc(-c2cccc(Cl)c2)on1)C1CC1 [Example 4.1, 5-{5-[{[5-(3-Chlorophenyl)isoxazol-3-yl]methyl}(cyclopropyl)amino]-4-methyl-4H-1,2,4-triazol-3-yl}pyridazin-3(2H)-one]	41 nM	< 0.01
Cc1cccc(-c2cc([C@H](C)N(C)c3nnc(-c4cnn(C)c(=O)c4)n3C)no2)c1 [Example 14, 2-Methyl-5-[4-methyl-5-(methyl{(1S)-1-[5-(3-methylphenyl)isoxazol-3-yl]ethyl}amino)-4H-1,2,4-triazol-3-yl]pyridazin-3(2H)-one]	12 nM	0.07
CCN(Cc1cc(-c2cccc(C)c2)on1)c1nnc(-c2cc[nH]c(=O)c2)n1C [Example 4.9, 4-[5-(Ethyl{[5-(3-methylphenyl)isoxazol-3-yl]methyl}amino)-4-methyl-4H-1,2,4-triazol-3-yl]pyridin-2(1H)-one]	53 nM	0.035
CCN(Cc1cc(-c2cccc(C)c2)on1)c1nnc(-c2ccn(C)c(=O)c2)n1C [Example 4.8, 4-[5-(Ethyl{[5-(3-methylphenyl)isoxazol-3-yl]methyl}amino)-4-methyl-4H-1,2,4-triazol-3-yl]-1-methylpyridin-2(1H)-one]	112 nM	0.22
CN(Cc1cc(-c2cccc(Cl)c2)on1)c1nnc(-c2cc(=O)[nH]cn2)n1C1CC1 [Example 4.5, 6-{5-[{[5-(3-chlorophenyl)isoxazol-3-yl]methyl}(methyl)amino]-4-cyclopropyl-4H-1,2,4-triazol-3-yl}pyrimidin-4(3H)-one]	77 nM	< 0.01
Cc1cccc(-c2cc([C@H](C)N(C)c3nnc(-c4cn[nH]c(=O)c4)n3C)no2)c1 [Example 4.11, (−)-5-[4-Methyl-5-(methyl-{(1S)-1-[5-(3-methylphenyl)isoxazol-3-yl]ethyl}amino)-4H-1,2,4-triazol-3-yl]pyridazin-3(2H)-one]	43 nM	< 0.01
Cc1cccc(-c2cc([C@H](C)N(C)c3nnc(-c4cc[nH]c(=O)c4)n3C)no2)c1 [Example 4.12, (−)-4-[4-Methyl-5-(methyl-{(1S)-1-[5-(3-methylphenyl)-isoxazol-3-yl]ethyl}amino)-4H-1,2,4-triazol-3-yl]pyridin-2(1H)-one]	71 nM	< 0.01
CCN(Cc1cc(-c2cccc(C)c2)on1)c1nnc(-c2cn[nH]c(=O)c2)n1C [Example 4.6, 5-[5-(Ethyl{[5-(3-methylphenyl)isoxazol-3-yl]-methyl}amino)-4-methyl-4H-1,2,4-triazol-3-yl]pyridazin-3(2H)-one]	45 nM	0.01
CCn1c(-c2cc(=O)[nH]cn2)nnc1N(C)Cc1cc(-c2cccc(Cl)c2)on1 [Example 4.4, 6-{5-[{[5-(3-chlorophenyl)-isoxazol-3-yl]methyl}(methyl)amino]-4-ethyl-4H-1,2,4-triazol-3-yl}pyrimidin-4(3H)-one]	13 nM	< 0.01
CCN(Cc1cc(-c2cccc(Cl)c2)on1)c1nnc(-c2ccn(C)c(=O)c2)n1C [Example 4.10, 4-{5-[{[5-(3-Chlorophenyl)-isoxazol-3-yl]methyl}(ethyl)amino]-4-methyl-4H-1,2,4-triazol-3-yl}-1-methylpyridin-2(1H)-one]	65 nM	< 0.01
CCn1c(-c2cc(=O)[nH]cn2)nnc1N(C)Cc1cc(-c2cccc(C)c2)on1 [Example 4.7, 6-[4-Ethyl-5-(methyl{[5-(3-methylphenyl)isoxazol-3-yl]methyl}amino)-4H-1,2,4-triazol-3-yl]pyrimidin-4(3H)-one]	53 nM	< 0.015
